Experimental data: patent publication US8669315B2, “Polycarbonate compositions and methods for the manufacture and use thereof” (SABIC Innovative Plastics IP B.V., priority 2011, dated 2014)

How the values were obtained:
[1] = molecular target: T1, recombinant human estradiol receptors (rhER) alpha (α) (Homo sapiens, UniProt P03372); assay: in vitro competitive binding assay, displacement of [3H]estradiol from rhER alpha; details: running text, highest concentration 2.5×E−4 M
T1 sequence (P03372 1-595): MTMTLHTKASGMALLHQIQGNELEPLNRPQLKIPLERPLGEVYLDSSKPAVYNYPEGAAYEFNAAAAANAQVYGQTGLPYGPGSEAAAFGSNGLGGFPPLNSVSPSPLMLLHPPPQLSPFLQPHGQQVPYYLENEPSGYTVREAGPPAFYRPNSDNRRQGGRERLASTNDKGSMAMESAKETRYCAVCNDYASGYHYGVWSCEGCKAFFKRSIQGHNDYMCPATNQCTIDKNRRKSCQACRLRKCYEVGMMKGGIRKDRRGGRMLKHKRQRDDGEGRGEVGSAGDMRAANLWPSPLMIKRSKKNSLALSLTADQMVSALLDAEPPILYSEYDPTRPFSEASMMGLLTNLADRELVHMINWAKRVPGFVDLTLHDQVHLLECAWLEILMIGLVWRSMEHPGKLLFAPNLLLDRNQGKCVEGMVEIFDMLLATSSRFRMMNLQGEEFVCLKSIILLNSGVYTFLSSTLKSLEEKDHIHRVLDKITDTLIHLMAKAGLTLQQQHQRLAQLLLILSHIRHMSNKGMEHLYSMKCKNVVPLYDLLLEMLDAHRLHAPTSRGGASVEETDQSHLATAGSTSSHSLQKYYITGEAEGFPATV

[2] = molecular target: recombinant human estradiol receptors (rhER) beta 1 (β1) (Homo sapiens, UniProt Q92731); assay: in vitro competitive binding assay, displacement of [3H]estradiol from rhER beta 1; details: highest concentration 2.5×E−4 M

Compound | estradiol binding / displacement at the beta estradiol receptor (in words) ([2]; running text) | estradiol binding / displacement at the alpha estradiol receptor (in words) [1] | also measured
CC(c1ccccc1)(c1ccc(O)cc1)c1ccc(O)cc1 [D, Bisphenol Acetophenone, reference compound] | – | displace estradiol | –
Oc1cccc(O)c1 [Example 5, Resorcinol] | no detectible estradiol displacement | no detectible estradiol displacement | estradiol binding / displacement at the alpha estradiol receptor (in words) ([1]; listed as resorcinol): no estradiol binding; estradiol binding / displacement at the beta estradiol receptor (in words) ([2]; running text, listed as resorcinol): no estradiol binding
Oc1ccc(Oc2ccc(O)cc2)cc1 [C, Dihydroxy Diphenyl Ether, reference compound] | displace estradiol | – | –
O=C1OC(c2ccc(O)cc2)(c2ccc(O)cc2)c2ccccc21 [P, Phenolphthalein, reference compound] | estradiol displacement at low concentration | – | –
CC(C)(c1ccc(O)cc1)c1cccc(C(C)(C)c2ccc(O)cc2)c1 [L, Bisphenol M, reference compound] | displace estradiol at low concentrations | displace estradiol at low concentrations | –
Tetra Methyl BPA [Example 2] | no detectible estradiol displacement | – | estradiol binding / displacement at the beta estradiol receptor (in words) ([2]; listed as tetra methyl bisphenol-A): no estradiol binding
Fluorenone Bis o-Cresol [J, reference compound] | displace estradiol at low concentrations | – | –
CC(C)(c1ccccc1)c1ccc(O)cc1 [B, p-Cumyl Phenol, reference compound] | displace estradiol | displace estradiol | –
Biphenol [Example 7] | no estradiol binding | no displacement | estradiol binding / displacement at the alpha estradiol receptor (in words) ([1]; listed as biphenol): no estradiol binding

More lines, main results first:

estradiol binding / displacement at the beta estradiol receptor (in words) ([2]; running text) | Compound | estradiol binding / displacement at the alpha estradiol receptor (in words) [1] | also measured
displace estradiol | COC(=O)CCC(C)(c1ccc(O)cc1)c1ccc(O)cc1 [F, Diphenolic Acid Methyl Ester, reference compound] | displace estradiol | –
displacement of estradiol | Cc1cc(C2(c3ccc(O)c(C)c3)CCCCC2)ccc1O [H, Dimethyl Cyclohexyl Bisphenol, reference compound] | displacement of estradiol | –
no alpha or beta estradiol displacement | Cc1cc(O)ccc1O [Example 9, Methyl Hydroquinone] | – | estradiol binding / displacement at the beta estradiol receptor (in words) ([2]; running text, listed as methyl hydroquinone): no estradiol binding
no detectible estradiol displacement | O=C1c2ccccc2C(c2ccc(O)cc2)(c2ccc(O)cc2)N1c1ccccc1 [Example 4, N-Phenyl Phenolphthalein Bisphenol] | no detectible estradiol displacement | estradiol binding / displacement at the alpha estradiol receptor (in words) ([1]; listed as N-phenyl phenolphthalein bisphenol): no estradiol binding; estradiol binding / displacement at the beta estradiol receptor (in words) ([2]; running text, listed as N-phenyl phenolphthalein bisphenol): no estradiol binding
displace estradiol at low concentrations | Bis Hydroxy Phenyl Menthane [reference compound] | displace estradiol at low concentrations | –
